Columns and labels:
[1] = test system: spontaneously hypertensive rats (SHR); assay: Hypotensive activity in SHR; format: in vivo, rat (SHR); conditions: 50 mg/kg orally
Method: A test compound (dose: 50 mg/kg) suspended in an aqueous carboxymethylcellulose solution was administered orally to spotaneously hypertensive rats (SHR) fasted for a day. The systolic blood pressure of the rats was measured by the tail plethysmographic technique (The Journal of Laboratory and Clinic Medicine 78(1971), page 957). The hypotensive activity of the test compound was estimated from the decreased level of blood pressure.

mice = assay: Oral toxicity in mice; format: in vivo; conditions: 3 g/kg
Description: . Moreover, the compound (I) of the present invention decreases aggregation of blood platelets and can be used to improve blood flow disturbances or other vascular diseases due to the formation of platelet aggregates (i.e., thrombus). Since the hypertensive disease is largely found in the aged subjects who show an increased tendency to capillary fragility or thrombosis, therefore, the compound (I) of the invention is useful to prevent, in addition to the treatment of hypertension, the genesis of thrombosis and other occlusive vascular diseases of such subjects. Further, the toxicity of the compound (I) is considerably low. […]

[2] = test system: ADP-induced platelet aggregation; assay: Platelet aggregation-inhibiting activity (ADP-induced, diluted platelet-rich plasma); format: cell-based, dog (male beagle); conditions: Canis lupus familiaris, test compound solution 100 μg/ml, added 2 minutes before ADP, beagle PRP, read-out: Platelet aggregation inhibiting activity (percentage inhibition of the second wave of ADP-induced platelet aggregation)
Method: The bottom layer was further centrifuged at 1000×g for 15 minutes to give platelet-poor plasma (PPP) as the supernatant solution.

ACE = assay: ACE-inhibitory activity in vivo (pressor response to angiotensin I); set-up: species or system rat (normotensive); conditions: 0.1 mg/kg intravenously; angiotensin I 300 ng/kg i.v.; anesthetized normotensive rats
Method: Normotensive rats weighing 300-400 g were anesthetized with urethane(1.5 g/kg, s.c.), and angiotensin I (300 ng/kg) was injected into the femoral vein of the rats. The pressor response to angiotensin I was measured with a pressure transducer connected to the carotid artery. Then, a test compound was injected intravenously thereto at a dose of 0.1 mg/kg, and angiotensin I (300 ng/kg) was further injected intravenously at intervals. The ACE-inhibitory activity of the test compound was estimated from the pressor responses to angiotensin I which were obtained before and after intraveous injection of the test compound.

In the case of C[C@H](CS)C(=O)N1Cc2ccccc2C[C@H]1C(=O)O [(3S)-2-[(2S)-3-mercapto-2-methyl-propionyl]-1,2,3,4-tetrahydroisoquinoline-3-carboxylic acid], the “Hypotensive activity in SHR: Duration of action” value [1] is reported as over 6 h, the “Hypotensive activity in SHR: Decrease in blood pressure” value ([1]; systolic, tail plethysmographic) is reported as “ca. 20%” and the “mortality five days after oral administration” value (mice) is reported as “no mouse died”. The inhibition at 100 µg/mL [2] was 86% and the “ACE-inhibitory activity in vivo (percentage inhibition of ACE activity in vivo)” value (ACE) was 90%.

Reference: patent US4256751A, “Tetrahydroisoquinoline derivatives” (Tanabe Seiyaku Co., Ltd., priority 1978, dated 1981)
